From ChEMBL document CHEMBL4028817, “Indole-TEMPO conjugates alleviate ischemia-reperfusion injury via attenuation of oxidative stress and preservation of mitochondrial function” (Bioorg Med Chem, 2017)
Activity calls are given as the source filed them. No cut-off for these calls is given here.

Legend:
Rattus norvegicus [1] = assay: Protection against ischemia/reperfusion-induced Wistar rat intestinal injury model assessed as reduction in lipid peroxidation by measuring lipid peroxide levels at 30 mg/kg administered as bolus dose pretreated for 5 mins followed by 12 hrs reperfusion and subsequent compound addition at 10 mg/kg administered at 1 hr interval during reperfusion period measured at 1.5 to 12 hrs post reperfusion by spectrophotometric method; assay type: functional, organism-based
Rattus norvegicus [2] = assay: (§1) Protection against ischemia/reperfusion induecd Wistar rat intestinal injury model assessed as decrease in mucosal neutrophil infiltration at 30 mg/kg administered as bolus dose pretreated for 5 mins followed by 12 hrs reperfusion and subsequent compound addition at 10 mg/kg administered at 1 hr interval during reperfusion period by hematoxylin-eosin/trichrome/NADH-diaphorase staining based histopathological analysis; assay type: functional, organism-based
Rattus norvegicus [3] = assay: Protection against ischemia/reperfusion-induced Wistar rat intestinal injury model assessed as effect on TNFalpha levels at 30 mg/kg administered as bolus dose pretreated for 5 mins followed by 12 hrs reperfusion and subsequent compound addition at 10 mg/kg administered at 1 hr interval during reperfusion period by ELISA (reference value: 62.9 +/- 8.7 pg/ml); assay type: functional
HUVEC [4] = assay: (§2) Protection against simulated ischemia/reperfusion injury induced mitochondrial oxidative damage in HUVEC assessed as increase in tubular mitochondrial cells at 30 ug/ml pretreated for 12 hrs followed by compound washout and subsequent ischemia simulation for 2 hrs in presence of compound prior to 3 hrs reperfusion under drug free medium by MitoProbe based confocal microscopic analysis; assay type: functional, cell-based; conditions: Homo sapiens
HUVEC [5] = assay: Protection against simulated ischemia/reperfusion injury-induced cell death in HUVEC assessed as increase in cell viability at 30 ug/ml treated for 12 hrs under normoxic condition prior to simulated ischemia for 2 hrs followed by compound washout measured 3 hrs post reperfusion; assay type: functional, cell-based; conditions: Homo sapiens
Mus musculus [6] = assay: Toxicity in mouse assessed as tail bleeding time at 0.50 mmol/kg, po administered 30 mins prior to tail transection measured every 30 secs (reference value: 120.5 +/- 7.9 sec); assay type: organism-based; conditions: in vivo
Mus musculus [7] = assay: Toxicity in mouse assessed as tail bleeding time at 0.50 mmol/kg, po administered 45 mins prior to tail transection measured every 30 secs (reference value: 119.8 +/- 8.4 sec); assay type: organism-based; conditions: in vivo
Mus musculus [8] = assay: Toxicity in mouse assessed as tail bleeding time at 0.50 mmol/kg, po administered 90 mins prior to tail transection measured every 30 secs (reference value: 119.3 +/- 7.7 sec); assay type: organism-based; conditions: in vivo
Rattus norvegicus [9] = assay: as §1, with “induced” for “induecd”, “reduction” for “decrease”, “denudation of villous tips” for “mucosal neutrophil infiltration”, “treatment” for “addition”; assay type: functional, organism-based
HUVEC [10] = assay: as §2, with “decrease” for “increase”, “in” for “in tubular”, “reactive oxygen species level” for “cells”; assay type: functional, cell-based; conditions: Homo sapiens
Rattus norvegicus [11] = assay: as §1, with “ischemia/reperfusion-induced” for “ischemia/reperfusion induecd”, “well-preserved glandular architecture” for “decrease in mucosal neutrophil infiltration”; assay type: functional, organism-based
Mus musculus [12] = assay: Toxicity in mouse assessed as tail bleeding time at 0.50 mmol/kg, po administered 60 mins prior to tail transection measured every 30 secs (reference value: 120.4 +/- 7.9 sec); assay type: organism-based; conditions: in vivo
Mus musculus [13] = assay: Anti-inflammatory activity in ICR mouse assessed as inhibition of xylene induced ear edema pretreated orally for 30 mins followed by xylene challenge measured after 2 hrs; assay type: functional
Mus musculus [14] = assay: Anti-inflammatory activity in ICR mouse assessed as inhibition of xylene induced ear edema at 0.10 mmol/kg pretreated orally for 30 mins followed by xylene challenge measured after 2 hrs relative to control; assay type: functional; conditions: po
Rattus norvegicus [15] = assay: Protection against ischemia/reperfusion-induced Wistar rat intestinal injury model assessed as reduction in mitochondrial oxidative damage at 30 mg/kg administered as bolus dose pretreated for 5 mins followed by 12 hrs reperfusion and subsequent compound addition at 10 mg/kg administered at 1 hr interval during reperfusion period by Mitoprobe staining based assay; assay type: functional, organism-based
Mus musculus [16] = assay: Anti-inflammatory activity in ICR mouse assessed as inhibition of xylene induced ear edema at 0.02 mmol/kg, po pretreated for 30 mins followed by xylene challenge measured after 2 hrs; assay type: functional, organism-based
HUVEC [17] = assay: Protection against simulated ischemia and reperfusion injury induced mitochondrial oxidative damage in HUVEC assessed as reduction in cytochrome c release at 30 ug/ml treated for 12 hrs under normoxic condition prior to simulated ischemia for 2 hrs followed by compound washout measured 3 hrs post reperfusion by MitoProbe based immuno-fluorescence assay (reference value: 71.2 +/- 4.5%); assay type: functional, Homo sapiens; design: scale not given: the % may be the effect or the level left
Mus musculus [18] = assay: Anti-inflammatory activity in xylene induced ICR mouse ear edema model assessed as edema weight at 0.10 mmol/kg, po pretreated 30 mins followed by xylene challenge measured after 2 hrs (reference value: 4.07 +/- 0.51 mg); assay type: functional
Mus musculus [19] = assay: Anti-inflammatory activity in xylene induced ICR mouse ear edema model assessed as edema weight at 20 mg/kg, po pretreated 30 mins followed by xylene challenge measured after 2 hrs (reference value: 4.07 +/- 0.51 mg); assay type: functional
Mus musculus [20] = assay: Anti-inflammatory activity in ICR mouse assessed as inhibition of xylene induced ear edema at 20 mg/kg pretreated orally for 30 mins followed by xylene challenge measured after 2 hrs relative to control; assay type: functional; conditions: po

SMILES	Activity (Rattus norvegicus [1])	Activity (Rattus norvegicus [2])	Activity (Rattus norvegicus [3]) [pg/mL]	Activity (HUVEC [4])	Activity (HUVEC [5])	Time (Mus musculus [6]) [s]	Time (Mus musculus [7]) [s]	Time (Mus musculus [8]) [s]	Activity (Rattus norvegicus [9])	Activity (HUVEC [10])	Activity (Rattus norvegicus [11])	Time (Mus musculus [12]) [s]	inhibition (Mus musculus [13])	inhibition in vivo at 100 µmol/kg (Mus musculus [14]) [%]	Activity (Rattus norvegicus [15])	inhibition (Mus musculus [16])	Activity (HUVEC [17]) [%]	Activity (Mus musculus [18]) [mg]	Activity (Mus musculus [19]) [mg]	inhibition in vivo at 20 mg/kg (Mus musculus [20]) [%]
CC1(C)CC(n2cc(CNC(=O)CC[C@@H](NC(=O)[C@@H]3Cc4c([nH]c5ccccc45)CN3C(=O)[C@@H]3Cc4c([nH]c5ccccc45)CN3)C(=O)NCc3cn(C4CC(C)(C)N([O])C(C)(C)C4)nn3)nn2)CC(C)(C)N1[O]	Active	Active	19	Active	Active	116.6	117.1	118.3	Active	Active	Active	119	Dose-dependent effect	80.3	Active	Active	23.1	0.8		
CC(=O)Oc1ccccc1C(=O)O [ASPIRIN]																			2.15	47.1
